# From patent US9017962B2, “Intracellular reporters” (The Johns Hopkins University, priority 2007, dated 2015)
# Entries after “also recorded” stand apart in the source; their conditions may differ.
# How the values were obtained:
# Type in all cases: cell-based
# p38 MAPK = test: JNK reporter specificity: inhibition of p38 MAPK in HeLa cells; settings: 25 μM, 45 min pre-treatment and continual presence
# Method: FIG. 16A-B. Characterization of a MAPK reporter. FIG. 16A, Co-transfection of reporter with mCherry-JIPδ. To inhibit JNK activity, HeLa cells were co-transfected with the reporter and mCherry-JIPδ and imaged 24 h later in HBSS containing 10% FBS on stage warmer heated to 37° C. […] FIG. 16B, Response of reporter to inhibition of p38 MAPK.
# To test the specificity of the reporter, HeLa cells were co-transfected with the reporter and a fusion construct of mCherry with the docking (δ) domain from JIP1.
# Akt [1] = test: Mito-AktAR imaging, Akt activity at the mitochondrial outer membrane, NIH3T3 cells
# Description: (§1) All of the targeting tags were subcloned to AktAR from targeted A Kinase Activity Reporter (AKAR) (Allen & Zhang, Biochem Biophys Res Commun. 2006, 22; 348(2):716-21). Two plasma membrane targeted AktAR, PM(Lyn)-AktAR and AktAR-PM(CAAX), were generated by addition of the N-terminal portion of Lyn kinase gene at the 5′ end and CAAX tag at the 3′ end of AktAR, respectively. Nuclear localization was achieved by a C-terminal nuclear localization signal (NLS) tag (PKKKRKVEDA, SEQ ID NO:31). The targeting motif from DAKAP1a was used to target AktAR to the outer membrane of mitochondria.
# (§2) NIH 3T3 cells were used in all experiments. The cells were plated on sterilized glass coverslips in 35-mm dishes and were grown to 40% confluency in Dulbecco's modified Eagle's medium (10% FBS) at 37° C. with 5% CO2. Cells were transfected with Lipofectamine (Invitrogen) then serum-starved for 24 h before imaging.
# (§3) NIH 3T3 cells were washed once with Hanks' balanced salt solution (HBSS) buffer and imaged in the dark at room temperature. Images were acquired on a Zeiss Axiovert 200M microscope with a cooled charge-coupled device camera, as described in Ananthanarayanan, 2005. Dual emission ratio imaging used a 420DF20 excitation filter, a 450DRLP dichroic mirror, and two emission filters. For CFP and YFP, 475DF40 and 535DF25 were used respectively. Exposure time was 50-500 ms. Images were taken every 20-30 s.
# (§4) Imaging data were analyzed with Metafluor 6.2 software (Universal Imaging, Downingtown, Pa.). Fluorescence images were background-corrected by deducting the background (regions with no cells) from the emission intensities of CFP or YFP. Traces before addition of drugs were normalized to 1.
# It has been known that Akt has several mitochondrial substrates. […] In summary, no basal, PDGF-stimulated, or phosphatase-suppressed endogenous Akt was detected at this location. It is possible that the extremely low activity of Akt at the mitochondrial outer membrane cannot be detected by Mito-AktAR.
# Akt [2] = test: AktAR emission ratio imaging in NIH3T3 cells
# Method: as §2, §3, §4
# calcineurin [3] = test: Calcineurin activity reporter emission ratio imaging in HeLa cells; settings: 1 μM, 10 minute preincubation
# Method: FIG. 22. Characterization of calcineurin activity reporter 1 (CaNAR1). Graph of representative response of CaNAR1-expressing HeLa cells following ionomycin treatment. Ionomycin (1 μM) and additional CaCl2 (5 mM) were added to the imaging solution at the indicated times (arrows). The standard deviation for each time point is shown (n=2).
# (§5) FIG. 23A-B. CaNAR1 is dephosphorylated in a calcineurin-dependent manner. FIG. 23A, graph of average response of CaNAR1 in the presence (black squares) or absence (gray diamonds) of cyclosporin A (CsA, 1-μM, 10 minute preincubation). Ionomycin and CaCl2 treatments are as described for FIG. 22. The standard error at each time point is shown (n=4 and 6 in the presence or absence of CsA, respectively). FIG. 23B, the electrophoretic mobility of CaNAR1 isolated from HeLa cell lysates was determined at various times after ionomycin addition using standard western blotting techniques using a rabbit anti-GFP antibody (diluted 1:4000 in blocking buffer) was used to probe for CaNAR1.
# To generate a FRET-based reporter capable of monitoring calcineurin activity in live cells, we initially chose to flank NFAT1(1-415) with ECFP and cpV(L194) at the N- and C-termini, respectively. […] The emission ratio of yellow over cyan was then measured over time in HeLa cells expressing each construct, and their signals compared. […]
# calcineurin [4] = test: Electrophoretic mobility of CaNAR1 from HeLa cell lysates (western blot); settings: preincubation prior to ionomycin treatment
# Method: as §5
# Next, to correlate the FRET change with dephosphorylation of CaNAR1, we took advantage of the fact that the electrophoretic mobility of NFAT1 is strongly influenced by its phosphorylation state. […] Though its calculated molecular weight is 85 kDa, CaNAR1 migrated almost exclusively as an approximately 125 kDa species in uninduced cell lysates, consistent with hyperphosphorylation of its substrate region. […] Thus, the observed FRET change is correlated with dephosphorylation of the reporter by calcineurin, providing a real-time readout for calcineurin activity.
# Akt [5] = test: Plasma membrane targeted AktAR imaging in NIH3T3 cells; settings: 5 mM pre-incubation for 30 min
# Description: as §1, §2
# NIH 3T3 cells were washed once with Hanks' balanced salt solution (HBSS) buffer and imaged in the dark at room temperature. Images were acquired on a Zeiss Axiovert 200M microscope with a cooled charge-coupled device camera, as described in Ananthanarayanan, 2005. […]
# Imaging data were analyzed with Metafluor 6.2 software (Universal Imaging, Downingtown, Pa.). Fluorescence images were background-corrected by deducting the background (regions with no cells) from the emission intensities of CFP or YFP. […]
molecule,measurement,setting,value
C[S+]([O-])c1ccc(-c2nc(-c3ccncc3)c(-c3ccc(F)cc3)[nH]2)cc1 (stereo not shown) [SB203580],effect on response of the reporter to anisomycin,p38 MAPK,does not affect the response of the reporter to anisomycin
COC[C@@H]([C@H](O)[C@H](O)C(=O)NCC[C@H](C)c1nc(/C=C/C[C@@H]2O[C@]3(C[C@@H](O)[C@@H]2C)O[C@H]([C@H](C[C@H](O)[C@H](C)[C@H](O)[C@H](C)/C=C(C)/C(C)=C/C=C/C(C)=C\C#N)OC)[C@H](OP(=O)(O)O)C3(C)C)co1)N(C)C [Calyculin A],effect on Mito-AktAR response,"Akt [1]; endogenous Akt, Calyculin A 5 nM or LY294002 20 μM",did not recover any Akt activity
same,effect on Mito-AktAR response,"Akt [1]; overexpressed Mito-mCherry-Akt1, Calyculin A 5 nM or LY294002",failed to activate mitochondrial outer membrane-bound Akt
same,effect on Mito-AktAR response,"Akt [1]; overexpressed mCherry-Akt1, after PDGF, Calyculin A 5 nM or LY294002 20 μM",further increased the response
same,effect on AktAR response,"Akt [2]; 5 nM after PDGF 50 ng/ml, serum-starved NIH3T3 cells",substantially increased the response of AktAR
CCCCCCCCCCCCCCCCCCOC[C@H](COP(=O)(O)O[C@H]1[C@H](O)[C@@H](O)[C@H](O)C[C@H]1OC)OC [SH-5],AktAR response to PDGF after pre-incubation with inhibitor,"Akt [2]; 6 μM pre-incubation in HBSS, PDGF 50 ng/ml",did not show substantial response
Cyclosporin A [CsA],effect on FRET change of CaNAR1 induced by ionomycin,calcineurin [3],completely abolished the FRET change
same,effect on FRET change of CaNAR1 induced by ionomycin,calcineurin [3]; listed as cyclosporine A,abolished
same,effect on electrophoretic mobility of CaNAR1 after ionomycin,calcineurin [4],no change in the electrophoretic mobility
methylated β-cyclodextrin [MβCD],effect on PM(Lyn)-AktAR response to PDGF (lipid rafts),Akt [5],delayed response and reduced dynamic range; also recorded: diminishes Akt activity at the plasma membrane lipid rafts
